Source: ChEMBL document CHEMBL3046025, “Fungitoxic Properties of N-Phenylformamidoximes in Control of Benzimidazole-Resistant Isolates of Fungi” (1992)

Assays:
Format in all cases: functional
Botrytis cinerea [1] = assay: Antifungal activity against Benzimidalzole-resistant Botryotinia fuckeliana isolate Bc-44 infected kidney bean leaves at 12.5 ppm treated as foliar application followed by incubation for 7 days in green house condition
Botrytis cinerea [2] = assay: Antifungal activity against Benzimidalzole-resistant Botryotinia fuckeliana isolate Bc-44 infected kidney bean leaves at 50 ppm treated as foliar application followed by incubation for 7 days in green house condition
Botrytis cinerea [3] = assay: Antifungal activity against Benzimidalzole-resistant Botryotinia fuckeliana isolate Bc-44 infected kidney bean leaves at 200 ppm treated as foliar application followed by incubation for 7 days in green house condition
Botrytis cinerea [4] = assay: Antifungal activity against Benzimidalzole-resistant Botryotinia fuckeliana isolate Bc-44 infected kidney bean leaves at 50 ppm applied as soil drench 3 days prior to inoculation
Botrytis cinerea [5] = assay: Antifungal activity against Benzimidalzole-resistant Botryotinia fuckeliana isolate Bc-44 infected kidney bean leaves at 200 ppm applied as soil drench 3 days prior to inoculation
Botrytis cinerea [6] = assay: Antifungal activity against Benzimidalzole-sensitive Botryotinia fuckeliana isolate Bc-9 infected compound-treated kidney bean leaves at 12.5 ppm after 4 days
Botrytis cinerea [7] = assay: Antifungal activity against Benzimidalzole-sensitive Botryotinia fuckeliana isolate Bc-9 infected compound-treated kidney bean leaves at 50 ppm after 4 days
Botrytis cinerea [8] = assay: Antifungal activity against Benzimidalzole-sensitive Botryotinia fuckeliana isolate Bc-9 infected compound-treated kidney bean leaves at 200 ppm after 4 days
Botrytis cinerea [9] = assay: Antifungal activity against Benzimidalzole-resistant Botryotinia fuckeliana isolate Bc-44 infected compound-treated kidney bean leaves at 12.5 ppm after 4 days
Botrytis cinerea [10] = assay: Antifungal activity against Benzimidalzole-resistant Botryotinia fuckeliana isolate Bc-44 infected compound-treated kidney bean leaves at 50 ppm after 4 days
Botrytis cinerea [11] = assay: Antifungal activity against Benzimidalzole-resistant Botryotinia fuckeliana isolate Bc-44 infected compound-treated kidney bean leaves at 200 ppm after 4 days
Botrytis cinerea [12] = assay: Antifungal activity against Benzimidalzole-resistant Botryotinia fuckeliana isolate Bc-20 infected compound-treated kidney bean leaves at 3.1 ppm after 4 days
Botrytis cinerea [13] = assay: Antifungal activity against Benzimidalzole-resistant Botryotinia fuckeliana isolate Bc-20 infected compound-treated kidney bean leaves at 12.5 ppm after 4 days
Botrytis cinerea [14] = assay: Antifungal activity against Benzimidalzole-resistant Botryotinia fuckeliana isolate Bc-20 infected compound-treated kidney bean leaves at 200 ppm after 4 days
Botrytis cinerea [15] = assay: Antifungal activity against Benzimidalzole-resistant Botryotinia fuckeliana isolate Bc-20 infected compound-treated kidney bean leaves at 50 ppm after 4 days
Botrytis cinerea [16] = assay: Antifungal activity against Benzimidalzole-sensitive Botryotinia fuckeliana isolate Bc-9 infected compound-treated kidney bean leaves at 3.1 ppm after 4 days
Botrytis cinerea [17] = assay: Antifungal activity against Benzimidalzole-resistant Botryotinia fuckeliana isolate Bc-44 infected kidney bean leaves at 3.1 ppm 24 hr post-infection measured after 3 days
Botrytis cinerea [18] = assay: Antifungal activity against Benzimidalzole-resistant Botryotinia fuckeliana isolate Bc-44 infected kidney bean leaves at 12.5 ppm 24 hr post-infection measured after 3 days
Botrytis cinerea [19] = assay: Antifungal activity against Benzimidalzole-resistant Botryotinia fuckeliana isolate Bc-44 infected kidney bean leaves at 50 ppm 24 hr post-infection measured after 3 days
Botrytis cinerea [20] = assay: Antifungal activity against Benzimidalzole-resistant Botryotinia fuckeliana isolate Bc-44 infected kidney bean leaves at 200 ppm 24 hr post-infection measured after 3 days
Botrytis cinerea [21] = assay: Antifungal activity against Benzimidalzole-resistant Botryotinia fuckeliana isolate Bc-44 infected compound-treated kidney bean leaves at 3.1 ppm after 4 days
Botrytis cinerea [22] = assay: Antifungal activity against Benzimidalzole-sensitive Botryotinia fuckeliana isolate Bc-9 infected kidney bean leaves at 12.5 ppm 24 hr post-infection measured after 3 days
Cercospora beticola [23] = assay: Antifungal activity against Benzimidalzole-sensitive Cercospora beticola isolate 18-1 infected in sugar beet seedlings at 3.1 ppm 24 hr-post inoculation
Cercospora beticola [24] = assay: Antifungal activity against Benzimidalzole-sensitive Cercospora beticola isolate 18-1 infected in sugar beet seedlings at 12.5 ppm 24 hr-post inoculation
Cercospora beticola [25] = assay: Antifungal activity against Benzimidalzole-sensitive Cercospora beticola isolate 18-1 infected in sugar beet seedlings at 50 ppm 24 hr-post inoculation
Cercospora beticola [26] = assay: Antifungal activity against Benzimidalzole-sensitive Cercospora beticola isolate 18-1 infected in sugar beet seedlings at 200 ppm 24 hr-post inoculation
Botrytis cinerea [27] = assay: Antifungal activity against Benzimidalzole-sensitive Botryotinia fuckeliana isolate Bc-9 infected kidney bean leaves at 200 ppm applied as soil drench 3 days prior to inoculation
Botrytis cinerea [28] = assay: Antifungal activity against Benzimidalzole-sensitive Botryotinia fuckeliana isolate Bc-9 infected kidney bean leaves at 200 ppm treated as foliar application followed by incubation for 7 days in green house condition
Cercospora beticola [29] = assay: Antifungal activity against Benzimidalzole-sensitive Cercospora beticola isolate 18-1 infected in sugar beet seedlings at 200 ppm applied as soil drench 3 days prior to inoculation
Cercospora beticola [30] = assay: Antifungal activity against Benzimidalzole-sensitive Cercospora beticola isolate 18-1 infected in sugar beet seedlings at 12.5 ppm treated as foliar application 7 days prior to inoculation
Cercospora beticola [31] = assay: Antifungal activity against Benzimidalzole-sensitive Cercospora beticola isolate 18-1 infected in sugar beet seedlings at 50 ppm treated as foliar application 7 days prior to inoculation
Cercospora beticola [32] = assay: Antifungal activity against Benzimidalzole-sensitive Cercospora beticola isolate 18-1 infected in sugar beet seedlings at 200 ppm treated as foliar application 7 days prior to inoculation
Cercospora beticola [33] = assay: Antifungal activity against Benzimidalzole-sensitive Cercospora beticola isolate 18-1 infected in compound-treated sugar beet seedlings at 200 ppm after 12 days
Cercospora beticola [34] = assay: Antifungal activity against Benzimidalzole-sensitive Cercospora beticola isolate 18-1 infected in compound-treated sugar beet seedlings at 50 ppm after 12 days
Cercospora beticola [35] = assay: Antifungal activity against Benzimidalzole-sensitive Cercospora beticola isolate 18-1 infected in compound-treated sugar beet seedlings at 12.5 ppm after 12 days
Botrytis cinerea [36] = assay: Antifungal activity against Benzimidalzole-sensitive Botryotinia fuckeliana isolate Bc-9 infected kidney bean leaves at 50 ppm 24 hr post-infection measured after 3 days
Botrytis cinerea [37] = assay: Antifungal activity against Benzimidalzole-sensitive Botryotinia fuckeliana isolate Bc-9 infected kidney bean leaves at 200 ppm 24 hr post-infection measured after 3 days
Cercospora beticola [38] = assay: Antifungal activity against Benzimidalzole-resistant Cercospora beticola isolate 18-2 infected in compound-treated sugar beet seedlings at 50 ppm after 12 days
Cercospora beticola [39] = assay: Antifungal activity against Benzimidalzole-resistant Cercospora beticola isolate 18-2 infected in compound-treated sugar beet seedlings at 200 ppm after 12 days
Cercospora beticola [40] = assay: Antifungal activity against Benzimidalzole-resistant Cercospora beticola isolate Cb-19 infected in compound-treated sugar beet seedlings at 50 ppm after 12 days
Cercospora beticola [41] = assay: Antifungal activity against Benzimidalzole-resistant Cercospora beticola isolate Cb-19 infected in compound-treated sugar beet seedlings at 200 ppm after 12 days
Cercospora beticola [42] = assay: Antifungal activity against Benzimidalzole-resistant Cercospora beticola isolate 20-2 infected in compound-treated sugar beet seedlings at 3.1 ppm after 12 days
Cercospora beticola [43] = assay: Antifungal activity against Benzimidalzole-resistant Cercospora beticola isolate 20-2 infected in compound-treated sugar beet seedlings at 12.5 ppm after 12 days
Cercospora beticola [44] = assay: Antifungal activity against Benzimidalzole-resistant Cercospora beticola isolate 20-2 infected in compound-treated sugar beet seedlings at 50 ppm after 12 days
Cercospora beticola [45] = assay: Antifungal activity against Benzimidalzole-resistant Cercospora beticola isolate 20-2 infected in compound-treated sugar beet seedlings at 200 ppm after 12 days
Cercospora beticola [46] = assay: Antifungal activity against Benzimidalzole-sensitive Cercospora beticola isolate 18-1 infected in compound-treated sugar beet seedlings at 3.1 ppm after 12 days
Cercospora beticola [47] = assay: Antifungal activity against Benzimidalzole-resistant Cercospora beticola isolate Cb-19 infected in sugar beet seedlings at 12.5 ppm treated as foliar application 7 days prior to inoculation
Cercospora beticola [48] = assay: Antifungal activity against Benzimidalzole-resistant Cercospora beticola isolate Cb-19 infected in sugar beet seedlings at 50 ppm treated as foliar application 7 days prior to inoculation
Cercospora beticola [49] = assay: Antifungal activity against Benzimidalzole-resistant Cercospora beticola isolate Cb-19 infected in sugar beet seedlings at 200 ppm treated as foliar application 7 days prior to inoculation
Cercospora beticola [50] = assay: Antifungal activity against Benzimidalzole-resistant Cercospora beticola isolate Cb-19 infected in sugar beet seedlings at 200 ppm 24 hr-post inoculation
Cercospora beticola [51] = assay: Antifungal activity against Benzimidalzole-resistant Cercospora beticola isolate Cb-19 infected in sugar beet seedlings at 200 ppm applied as soil drench 3 days prior to inoculation
Cercospora beticola [52] = assay: Antifungal activity against Benzimidalzole-resistant Cercospora beticola isolate 18-2 infected in compound-treated sugar beet seedlings at 3.1 ppm after 12 days
Cercospora beticola [53] = assay: Antifungal activity against Benzimidalzole-resistant Cercospora beticola isolate 18-2 infected in compound-treated sugar beet seedlings at 12.5 ppm after 12 days
Cercospora beticola [54] = assay: Antifungal activity against Benzimidalzole-resistant Cercospora beticola isolate Cb-19 infected in compound-treated sugar beet seedlings at 3.1 ppm after 12 days
Cercospora beticola [55] = assay: Antifungal activity against Benzimidalzole-resistant Cercospora beticola isolate Cb-19 infected in compound-treated sugar beet seedlings at 12.5 ppm after 12 days

Compound | Activity (Botrytis cinerea [6]) | Activity (Botrytis cinerea [7]) | Activity (Botrytis cinerea [8]) | Activity (Botrytis cinerea [9]) | Activity (Botrytis cinerea [10]) | Activity (Botrytis cinerea [11]) | Activity (Botrytis cinerea [13]) | Activity (Botrytis cinerea [14]) | Activity (Botrytis cinerea [15]) | Activity (Cercospora beticola [33]) | Activity (Cercospora beticola [34]) | Activity (Cercospora beticola [35]) | Activity (Cercospora beticola [38]) | Activity (Cercospora beticola [39]) | Activity (Cercospora beticola [40]) | Activity (Cercospora beticola [41]) | Activity (Cercospora beticola [42]) | Activity (Cercospora beticola [43]) | Activity (Cercospora beticola [44]) | Activity (Cercospora beticola [45]) | further results
C=CC1(C)OC(=O)N(c2cc(Cl)cc(Cl)c2)C1=O (stereo unspecified) [VINCLOZOLIN] | 90% | 100% | 100% | 77% | 100% | 100% | 82% | 100% | 100% | – | – | – | – | – | – | – | – | – | – | – | Activity (Botrytis cinerea [1]): 45%; Activity (Botrytis cinerea [2]): 75%; Activity (Botrytis cinerea [3]): 91%; Activity (Botrytis cinerea [4]): 56%; Activity (Botrytis cinerea [5]): 93%; Activity (Botrytis cinerea [12]): 31%; Activity (Botrytis cinerea [16]): 39%; Activity (Botrytis cinerea [17]): 70%; Activity (Botrytis cinerea [18]): 97%; Activity (Botrytis cinerea [19]): 100%; Activity (Botrytis cinerea [20]): 100%; Activity (Botrytis cinerea [21]): 21%
COC(=O)NC(=S)Nc1ccccc1NC(=S)NC(=O)OC [THIOPHANATE METHYL] | 35% | 84% | 96% | 0% | 0% | 5% | 0% | 17% | 7% | 100% | 100% | 88% | 0% | 0% | 0% | 0% | 0% | 12% | 56% | 78% | Activity (Botrytis cinerea [22]): 73%; Activity (Cercospora beticola [23]): 13%; Activity (Cercospora beticola [24]): 75%; Activity (Cercospora beticola [25]): 100%; Activity (Cercospora beticola [26]): 100%; Activity (Botrytis cinerea [27]): 51%; Activity (Botrytis cinerea [28]): 93%; Activity (Cercospora beticola [29]): 64%; Activity (Cercospora beticola [30]): 25%; Activity (Cercospora beticola [31]): 84%; Activity (Cercospora beticola [32]): 88%; Activity (Botrytis cinerea [36]): 84%; Activity (Botrytis cinerea [37]): 84%; Activity (Cercospora beticola [46]): 68%
TRIPHENYLSTANNANOL | – | – | – | – | – | – | – | – | – | 100% | 100% | 88% | 100% | 100% | 100% | 100% | 69% | 94% | 100% | 100% | Activity (Cercospora beticola [47]): 65%; Activity (Cercospora beticola [48]): 90%; Activity (Cercospora beticola [49]): 100%; Activity (Cercospora beticola [50]): 0%; Activity (Cercospora beticola [51]): 0%; Activity (Cercospora beticola [52]): 56%; Activity (Cercospora beticola [53]): 80%; Activity (Cercospora beticola [54]): 60%; Activity (Cercospora beticola [55]): 78%; Activity (Cercospora beticola [46]): 75%
